Read-outs that look alike come from different tables or passages of the source.
How the values were obtained:
[1] = test system: PBMC from T. gondii-seropositive HLA-A03 individuals; assay: IFN-γ ELISpot assay with human PBMC; assay type: cell-based; conditions: for IFN-γ-secreting spot formation: PBMC from Toxoplasma seropositive HLA-A03 individuals, compared to an irrelevant HLA-A*1101-restricted peptide
Method: To determine which of these peptides would be recognized in the context of Toxoplasma infection, peripheral blood mononuclear cells (PBMC) from T. gondii-seropositive HLA-A03 individuals were tested for response to these peptides in pools or individually by using an IFN-γ ELISpot assay. Candidate peptides were considered immunogenic if they induced IFN-γ-secreting spot formation that was significant compared to an irrelevant HLA-A*1101-restricted peptide.
The epitopes were linked together with N/K alanines or GPGPG (SEQ ID NO: 23) as linker, named as LO and AZ, respectively (FIG. 3A-B). […] Immunogenicity of the two proteins compared to the pool of the 5 individual A11-restricted CD8^+ T cell epitope peptides was tested in vitro.
PBMC were obtained from individuals seropositive to T. gondii, and their HLA haplotype was determined.

[2] = biological target: T1, TLR5 (Homo sapiens, UniProt O60602); assay type: cell-based; conditions: for TLR5 activity (SEAP expression): 0.01-1000 ng/ml, 24 hours
T1 construct: expressed in transfected cells; host or cells: HEK 293 (stably co-transfected with TLR5 and NF-kB-driven SEAP reporter)

[3] = Immune response to Tox-All in HLA transgenic mice; parameters: species or system HLA A2 and HLA A11 mice; conditions: mouse, in vivo
From the text: The schematic diagrams of SAPN A11 (SEQ ID NO:27) in FIG. 17A 12e is similar to the schematic diagram of the more complex SAPN Tox-All (FIG. 17B). (FIG. 12f). […] Tox-All contains CD8 T cell eliciting epitopes by binding to HLA All, A2, and B7, PADRE a universal CD4 T cell eliciting epitope, protein domains that can elicit antibody (data not shown). Tox-All has the same scaffold flagellin that is shown for SAPN A11. […] Additional CD8 peptides that bind to other HLA molecules to broaden population coverage and CD4 peptides can be added in this complex SAPN. Additional proteins that elicit B cells can also be included in the SAPN. This allows us to tailor an immune response for each component of the immune system we wish to stimulate. The methods and approaches are those described for the A11 SAPN.

T1 sequence (O60602 21-858): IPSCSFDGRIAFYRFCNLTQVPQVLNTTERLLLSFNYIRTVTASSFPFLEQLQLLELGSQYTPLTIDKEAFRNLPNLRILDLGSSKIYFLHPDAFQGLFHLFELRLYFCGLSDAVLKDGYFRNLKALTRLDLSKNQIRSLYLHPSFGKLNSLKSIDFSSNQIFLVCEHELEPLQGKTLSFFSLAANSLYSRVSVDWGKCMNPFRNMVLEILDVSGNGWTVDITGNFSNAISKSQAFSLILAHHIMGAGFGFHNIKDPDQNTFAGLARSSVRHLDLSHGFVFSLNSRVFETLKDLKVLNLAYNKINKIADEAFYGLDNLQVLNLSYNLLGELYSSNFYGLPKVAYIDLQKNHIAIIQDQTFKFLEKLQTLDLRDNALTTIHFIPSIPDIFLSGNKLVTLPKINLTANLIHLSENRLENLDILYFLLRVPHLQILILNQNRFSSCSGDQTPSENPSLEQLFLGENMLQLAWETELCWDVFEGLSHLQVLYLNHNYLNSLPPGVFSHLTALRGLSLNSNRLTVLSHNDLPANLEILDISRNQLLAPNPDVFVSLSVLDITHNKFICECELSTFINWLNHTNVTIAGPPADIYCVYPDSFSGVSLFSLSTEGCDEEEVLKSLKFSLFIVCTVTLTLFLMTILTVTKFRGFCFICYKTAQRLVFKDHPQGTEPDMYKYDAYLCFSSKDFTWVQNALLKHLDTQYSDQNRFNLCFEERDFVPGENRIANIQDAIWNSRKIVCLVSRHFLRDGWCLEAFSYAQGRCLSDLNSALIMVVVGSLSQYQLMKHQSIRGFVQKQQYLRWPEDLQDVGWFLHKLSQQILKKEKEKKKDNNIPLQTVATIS

AVVSLLRLLK [GRA589-98]
IFN-γ-secreting spot formation [1]: stimulated significant response

Concanavalin A [Con A, reference compound]
IFN-γ ELISpot response, seropositive versus seronegative donors ([1]; PBMC of 3 seropositive and 3 seronegative HLA-A03 individuals): response of PBMC from both seronegative and seropositive donors

SSAYVFSVK [SRS52A250-258]
IFN-γ-secreting spot formation [1]: stimulated significant response

STFWPCLLR [SAG2C13-21]
IFN-γ-secreting spot formation [1]: stimulated significant response

B1: CD8-SAPN: self-assembling protein nanoparticle with five CD8+ epitopes and PADRE inserted into flagellin (protein)
chain: MGDKHHHHHHHHHHKDGSDKGSWEEWNARWDEWENDWNDWREDWQAWRDDWARWRATWMGGRLLSRLERLERRNEELRRLLQLIRHENRMVLQFVRALSMQNAELERRLEELARGMAQVINTNSLSLLTQNNLNRSQSALGTAIERLSSGLRINSARDDAAGQAIANRFTANIRGLTQASRNANDGISIAQTTEGALNEINNNLQRVRELAVQSANSTNSQSDLDSIQAEITQRLNEIDRVSGQTQFNGVRVLAQDNTLTIQVGANDGETIDIDLRQINSQTLGLDQLNVQQEYESDDAVVSLLRLLKNAMLTAFFLRNAAAKSFKDILPKKAAASSAYVFSVKKAAAKFVAAWTLKAAAKSTFWPCLLRDSDSDTENPLQRIDAALAQVDALRSDLGAVQNRFNSAITNLGNTVNNLSEARSRIEDSDYATEVSNMSRAQILQQAGTSVLAQANQVPQNVLSLLR
modifications: (1)..(14) optionally absent
TLR5 activity (SEAP expression) [2]: significantly enhanced | TLR5 activity (SEAP expression) ([2]; listed as SAPN): good stimulation

B2: Tox-All: SAPN with HLA A11, A2 and B7 CD8 epitopes, PADRE, antibody-eliciting domains and flagellin (protein)
chain: MGDDHHHHHHHHHHWFMGVLVNSLQDITMGSLFFVQDFMIVSISLVQDGLAAAVVAVQDLPQFATAATRDSPASGRYIQQMLDQRCQEIAAELCQSGLRKMCVPSSRIVARNAVGITHQNTLQWRCFDTASLLESNQENNGVNCVDDCGHTIPCPGGVHRQNSNHATRHEILSKLVEEGVQRFCSPYQASANKYCNDKFPGTIARRSKGFGNNVEVAWRCYEKASLLYSVYAECASNCGTTWYCPGGRRGTSTELDKRHYTEEEGIRQAIGSVDSPCSEVEVCLPKDENPPLCLDESGQISRGSWEEWNARWDEWENDWNDWREDWQAWRDDWARWRATWMGGRLLSRLERLERRNEELRRLLQLIRHENRMVLQFVRALSMQNAELERRLEELARGMAQVINTNSLSLLTQNNLNRSQSALGTAIERLSSGLRINSARDDAAGQAIANRFTANIRGLTQASRNANDGISIAQTTEGALNEINNNLQRVRELAVQSANSTNSQSDLDSIQAEITQRLNEIDRVSGQTQFNGVRVLAQDNTLTIQVGANDGETIDIDLRQINSQTLGLDQLNVQQEYESDDAVVSLLRLLKNAMLTAFFLRNAAAKSFKDILPKKAAASSAYVFSVKKAAAKFVAAWTLKAAAKSTFWPCLLRDSDSDTENPLQRIDAALAQVDALRSDLGAVQNRFNSAITNLGNTVNNLSEARSRIEDSDYATEVSNMSRAQILQQAGTSVLAQANQVPQNVLSLLR
modifications: (1)..(14) optionally absent
TLR5 stimulation ([2]; data not shown): stimulates TLR5 | immune response [3]: stimulates an immune response
